Source: ChEMBL document CHEMBL1201862, “PubChem BioAssay data set” (2004)
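Results reflect a 48-hour exposure of cells in 96-well plates to compound at five concentrations. At the GI50, growth is halved.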 Active and inactive are the calls of the source. Cut-off read from the data, not from the text of the source: active = GI50 up to about 1.1 µM and inactive = higher.

Tests used:
Experiment in all cases: NCI anticancer screen, dose series, 48 h
NCI-H23 = tested on: NCI-H23
SW-620 = tested on: SW-620
SK-MEL-2 = tested on: SK-MEL-2
OVCAR-4 = tested on: OVCAR-4
MOLT-4 = tested on: MOLT-4
A549 = tested on: A549
SNB-19 = tested on: SNB-19
SF-539 = tested on: SF-539
ACHN = tested on: ACHN
UACC-62 = tested on: UACC-62
LOX IMVI = tested on: LOX IMVI
M14 = tested on: M14
CAKI-1 = tested on: CAKI-1
COLO 205 = tested on: COLO 205
Hs-578T = tested on: Hs-578T
SN12C = tested on: SN12C
PC-3 = tested on: PC-3
SK-OV-3 = tested on: SK-OV-3
HOP-62 = tested on: HOP-62
BT-549 = tested on: BT-549
786-0 = tested on: 786-0
NCI-H522 = tested on: NCI-H522
OVCAR-3 = tested on: OVCAR-3
HCC 2998 = tested on: HCC 2998
MDA-MB-231 = tested on: MDA-MB-231
HCT-15 = tested on: HCT-15
DU-145 = tested on: DU-145
HOP-92 = tested on: HOP-92
T47D = tested on: T47D
HL-60 = tested on: HL-60
KM12 = tested on: KM12
SR = tested on: SR
SF-268 = tested on: SF-268
MDA-N = tested on: MDA-N
HT-29 = tested on: HT-29
SK-MEL-5 = tested on: SK-MEL-5
U-251 = tested on: U-251
OVCAR-5 = tested on: OVCAR-5
IGROV-1 = tested on: IGROV-1
SF-295 = tested on: SF-295
SNB-75 = tested on: SNB-75
NCI-H226 = tested on: NCI-H226
NCI/ADR-RES = tested on: NCI/ADR-RES
UO-31 = tested on: UO-31
OVCAR-8 = tested on: OVCAR-8
HCT-116 = tested on: HCT-116
MDA-MB-435 = tested on: MDA-MB-435
EKVX = tested on: EKVX
NCI-H460 = tested on: NCI-H460
RPMI-8226 = tested on: RPMI-8226
CCRF-CEM = tested on: CCRF-CEM
Malme-3M = tested on: Malme-3M
SK-MEL-28 = tested on: SK-MEL-28
UACC-257 = tested on: UACC-257
MCF7 = tested on: MCF7
TK-10 = tested on: TK-10
RXF 393 = tested on: RXF 393
K562 = tested on: K562

For `C/C(CC1C2CCCC1C2)=N\NC(N)=O` (stereo not drawn), the GI50 (NCI-H23) was > 100 µM (inactive), the GI50 (SW-620) was > 100 µM (inactive) and the GI50 (SK-MEL-2) was > 100 µM (inactive). For the same compound, the GI50 (OVCAR-4) was > 100 µM (inactive), the GI50 (MOLT-4) was > 100 µM (inactive) and the GI50 (A549) was > 100 µM (inactive). The GI50 (SNB-19) was > 100 µM (inactive), the GI50 (SF-539) was > 100 µM (inactive) and the GI50 (ACHN) was > 100 µM (inactive). The GI50 (UACC-62) was > 100 µM (inactive), the GI50 (LOX IMVI) was > 100 µM (inactive) and the GI50 (M14) was > 100 µM (inactive). The GI50 (CAKI-1) was > 100 µM (inactive), the GI50 (COLO 205) was > 100 µM (inactive) and the GI50 (Hs-578T) was > 100 µM (inactive). For the same compound, the GI50 (SN12C) was > 100 µM (inactive), the GI50 (PC-3) was > 100 µM (inactive) and the GI50 (SK-OV-3) was > 100 µM (inactive). For the same compound, the GI50 (HOP-62) was > 100 µM (inactive), the GI50 (BT-549) was > 100 µM (inactive) and the GI50 (786-0) was > 100 µM (inactive). For the same compound, the GI50 (NCI-H522) was > 100 µM (inactive), the GI50 (OVCAR-3) was 7.24 µM (inactive) and the GI50 (HCC 2998) was > 100 µM (inactive). The GI50 (MDA-MB-231) was > 100 µM (inactive), the GI50 (HCT-15) was over 100 µM and the GI50 (DU-145) was > 100 µM (inactive). The GI50 (HOP-92) was > 100 µM (inactive), the GI50 (T47D) was > 100 µM (inactive) and the GI50 (HL-60) was > 100 µM (inactive). For the same compound, the GI50 (KM12) was > 100 µM (inactive), the GI50 (SR) was > 100 µM (inactive) and the GI50 (SF-268) was > 100 µM (inactive). For the same compound, the GI50 (MDA-N) was > 100 µM (inactive), the GI50 (HT-29) was > 100 µM (inactive) and the GI50 (SK-MEL-5) was > 100 µM (inactive). For the same compound, the GI50 (U-251) was > 100 µM (inactive), the GI50 (OVCAR-5) was > 100 µM (inactive) and the GI50 (IGROV-1) was > 100 µM (inactive). The GI50 (SF-295) was > 100 µM (inactive), the GI50 (SNB-75) was > 100 µM (inactive) and the GI50 (NCI-H226) was > 100 µM (inactive). The GI50 (NCI/ADR-RES) was > 100 µM (inactive), the GI50 (UO-31) was > 100 µM (inactive) and the GI50 (OVCAR-8) was > 100 µM (inactive). For the same compound, the GI50 (HCT-116) was > 100 µM (inactive), the GI50 (MDA-MB-435) was > 100 µM (inactive) and the GI50 (EKVX) was > 100 µM (inactive). For the same compound, the GI50 (NCI-H460) was > 100 µM (inactive), the GI50 (RPMI-8226) was > 100 µM (inactive) and the GI50 (CCRF-CEM) was > 100 µM (inactive). The GI50 (Malme-3M) was > 100 µM (inactive), the GI50 (SK-MEL-28) was > 100 µM (inactive) and the GI50 (UACC-257) was > 100 µM (inactive). For the same compound, the GI50 (MCF7) was > 100 µM (inactive) and the GI50 (TK-10) was > 100 µM (inactive).
`COC(=O)Cc1cc(O)c(C/C=C(\C)CC/C=C(\C)C(O)C(=O)C=C(C)C)cc1O` (stereo not drawn) was tested, and the GI50 (NCI-H23) was 39.4 µM (inactive), the GI50 (SW-620) was 31.3 µM (inactive) and the GI50 (SK-MEL-2) was 24.6 µM (inactive). For the same compound, the GI50 (RXF 393) was 14.5 µM (inactive), the GI50 (OVCAR-4) was 40.4 µM (inactive) and the GI50 (MOLT-4) was 14.5 µM (inactive). For the same compound, the GI50 (A549) was 25.6 µM (inactive), the GI50 (SNB-19) was 32 µM (inactive) and the GI50 (K562) was 15.6 µM (inactive). For the same compound, the GI50 (SF-539) was 20.3 µM (inactive), the GI50 (ACHN) was 24.9 µM (inactive) and the GI50 (UACC-62) was 19.9 µM (inactive). For the same compound, the GI50 (M14) was 26.3 µM (inactive), the GI50 (COLO 205) was 24.8 µM (inactive) and the GI50 (Hs-578T) was 41 µM (inactive). The GI50 (SN12C) was 22.4 µM (inactive), the GI50 (PC-3) was 21.9 µM (inactive) and the GI50 (SK-OV-3) was 29.7 µM (inactive). For the same compound, the GI50 (HOP-62) was 19.6 µM (inactive), the GI50 (BT-549) was 25.6 µM (inactive) and the GI50 (786-0) was 38.6 µM (inactive). For the same compound, the GI50 (NCI-H522) was 21.1 µM (inactive), the GI50 (OVCAR-3) was 19.4 µM (inactive) and the GI50 (MDA-MB-231) was 34.7 µM (inactive). For the same compound, the GI50 (DU-145) was 45.4 µM (inactive), the GI50 (HOP-92) was 20.4 µM (inactive) and the GI50 (T47D) was 16.5 µM (inactive). For the same compound, the GI50 (HL-60) was 2.76 µM (inactive), the GI50 (KM12) was 20.7 µM (inactive) and the GI50 (SR) was 15.6 µM (inactive). The GI50 (SF-268) was 19.7 µM (inactive), the GI50 (MDA-N) was 35.5 µM (inactive) and the GI50 (HT-29) was 27.4 µM (inactive). The GI50 (SK-MEL-5) was 17.1 µM (inactive), the GI50 (U-251) was 18.7 µM (inactive) and the GI50 (OVCAR-5) was 33.7 µM (inactive). For the same compound, the GI50 (IGROV-1) was 23.3 µM (inactive), the GI50 (SF-295) was 24.2 µM (inactive) and the GI50 (SNB-75) was 18.2 µM (inactive). The GI50 (NCI-H226) was 26.3 µM (inactive), the GI50 (NCI/ADR-RES) was 22.5 µM (inactive) and the GI50 (UO-31) was 21.6 µM (inactive). The GI50 (OVCAR-8) was 23.2 µM (inactive), the GI50 (HCT-116) was 17.3 µM (inactive) and the GI50 (MDA-MB-435) was 20.6 µM (inactive). The GI50 (EKVX) was 23.6 µM (inactive), the GI50 (NCI-H460) was 20.6 µM (inactive) and the GI50 (RPMI-8226) was 26.7 µM (inactive). The GI50 (CCRF-CEM) was 2.93 µM (inactive), the GI50 (Malme-3M) was 17.3 µM (inactive) and the GI50 (UACC-257) was 30.7 µM (inactive). For the same compound, the GI50 (MCF7) was 32.1 µM (inactive).
